Measurements reported in patent US20190201721A1, “ORAL CARE PRODUCTS AND METHODS COMPRISING HYDROXYAPATITE BINDING PROTEINS” (BASF SE, priority 2015, published 2019).

B1: IPTLPSS-GGG-AFP4-His6 (protein)
chain: MKFSIAAAVVAFAASVAALPPAHDSQFAGNGVGNKGNSNVKFPVPENVTVKQASDKCGDQAQLSCCNKATYAGDTTTVDEGLLSGALSGLIGAGSGAEGLGLFDQCSKLDVAVLIGIQDLVNQKCKQNIACCQNSPSSADGNLIGVGLPCVALGSIL
notes: fusion of HABP peptide IPTLPSS via GGG spacer to antifreeze protein AFP4-His6
B2: AFP4-His6 (protein)
chain: MRFIVSLLAFTAAATATALPASAAKNAKLATSAAFAKQAEGTTCNVGSIACCNSPAETNNDSLLSGLLGAGLLNGLSGNTGSACAKASLIDQLGLLALVDHTEEGPVCKNIVACCPEGTTNCVAVDNAGAGTKAE
modifications: His6 tag

Test system: not listed separately
Test: Binding to and release from calcium phosphate discs (HA-discs) after saliva incubation
Details: read out by TRPM8 activation of the supernatant
Method: The hybrid molecules of example 4 (5 μM in Tris buffer pH 8) were incubated with calcium phosphate discs (HA-discs from Himed) at 37° C. for 1 hr. Unbound molecules were removed by washing 3-times with Tris buffer. The coated calcium phosphate discs were incubated with buffer as a control and in parallel with pooled human saliva (5 donors; 37° C., for 2 hrs). The supernatant was centrifuged and evaluated for cooling activity by specific activation of human cool receptor TRPM8.
The agonisation or antagonisation of the receptor was quantified by means of a Ca^2+-sensitive dye (e.g. FURA, Fluo-4, etc.). Agonists on their own bring about an increase in the Ca^2+-signal; antagonists in the presence of, for example, menthol bring about a reduction in the Ca^2+-signal (in each case detected by means of the Fluo-4 dye, which due to the Ca^2+ has other fluorescent properties). To begin with, in a manner known per se, in cell culture flasks a fresh culture of transformed HEK cells was prepared. […] Addition of the test samples in quantities of 50 μl/well and measurement of the change in fluorescence (e.g. in the FLIPR assay device, Molecular Devices or NovoStar, BMG) at 485 nm excitation, 520 nm emission, and evaluation of the effective strength of the various substances/concentrations and determination of the EC50 values. […]

| Molecule | bound on hydroxyapatite / released after incubation with human saliva |
| --- | --- |
| CC1CCC(C(C)C)C(O)C1 (centres unmarked) [menthol] | nothing is bound on hydroxyapatite |

Test system: not listed separately
Test: Binding assay of carboxyfluorescein-labeled peptides/proteins to hydroxyapatite powder
Details: 2 μM N-terminal labeled peptide/protein, 10 mg hydroxyapatite powder, HBS-T buffer, 2 h, 37° C.
Method: i. Petide/Protein Labeling For binding studies 5(6)-carboxyfluorescein was conjugated to the N-terminus of the peptides/proteins by using the corresponding succinimidyl ester (Invitrogen, Darmstadt, Germany). The labeling reaction was performed according to the manufactures protocol (Invitrogen, Darmstadt, Germany). After conjugation, the labeled peptide/protein was purified either with a PD-10 desalting column for proteins larger than 5 kDa or a PD MidiTrap G-10 for smaller proteins (GE Healthcare, Buckinghamshire, UK) or for peptides by HPLC on RP18 column. ii. Peptide/Protein Binding For the binding experiments N-terminal labeled peptides/proteins were used in a final concentration of 2 μM. The binding was carried out in HBS-T buffer (150 mM NaCl, 50 mM HEPES pH 7.5, 0.1% Tween 20). The peptides/proteins were exposed to 10 mg hydroxyapatite powder (Fluke) for 2 h at 37° C. After five wash steps with HBS-T buffer the bound peptide/protein was visualized by fluorescence microscopy with the appropriate filters (excitation 475/50; emission 525/50). To quantify the binding, the fluorescence intensity of the solution before (Fi) and after (Ff) binding was measured with a Fluostar Galaxy (BMG, Ortenberg, Germany) and the amount of bound peptide/protein was estimated (cbound=[1−(Ff/Fi)]×c0). The peptide LIKHILHRL, which was described as a non-binding peptide to hydroxyapatite, was used as a negative control [Yarbrough D K, Hagerman E, Eckert R, He J, Choi H, Cao N, et al. Specific binding and mineralization of calcified surfaces by small peptides. Calcif Tissue Int 2010; 86(1):58-66.]. All binding experiments were carried out as triplicates. Evaluation: +: 30-50% bound peptide on HAP; ++: 50-100% bound peptide on HAP

| Molecule | bound peptide on HAP |
| --- | --- |
| B1 | (60%) |
| B2 | (35%) |

Same assay, conditions: 2 μM N-terminal labeled peptide/protein, 10 mg hydroxyapatite powder, HBS-T buffer, 2 h, 37° C., triplicates

| Molecule | bound peptide on HAP (evaluation class) |
| --- | --- |
| EHITTSN [SEQ ID NO: 9] | + (+: 30-50% bound peptide on HAP) |
| GKVQAQS [SEQ ID NO: 5] | + (+: 30-50% bound peptide on HAP) |
| GSPATAA [SEQ ID NO: 4] | + (+: 30-50% bound peptide on HAP) |
| HPPLHHA [SEQ ID NO: 2] | + (+: 30-50% bound peptide on HAP) |
| IDDYTRA [SEQ ID NO: 1] | ++ (++: 50-100% bound peptide on HAP) |
| IPITNLR [SEQ ID NO: 11] | + (+: 30-50% bound peptide on HAP) |
| IPTLPSS [SEQ ID NO: 7] | ++ (++: 50-100% bound peptide on HAP) |
| MQTVEVT [SEQ ID NO: 14] | + (+: 30-50% bound peptide on HAP) |
| NERALTL [SEQ ID NO: 13] | + (+: 30-50% bound peptide on HAP) |
| RILITIP [SEQ ID NO: 10] | + (+: 30-50% bound peptide on HAP) |
| SPSTHWK [SEQ ID NO: 3] | + (+: 30-50% bound peptide on HAP) |
| SWGTQTD [SEQ ID NO: 15] | + (+: 30-50% bound peptide on HAP) |
| TLPASSV [SEQ ID NO: 16] | ++ (++: 50-100% bound peptide on HAP) |
| TTSTRHI [SEQ ID NO: 12] | + (+: 30-50% bound peptide on HAP) |
| YPVTPSI [SEQ ID NO: 6] | + (+: 30-50% bound peptide on HAP) |
| YQGASEN [SEQ ID NO: 8] | ++ (++: 50-100% bound peptide on HAP) |
| B1 | ++ (++: 50-100% bound peptide on HAP) |
| B2 | + (+: 30-50% bound peptide on HAP) |

Molecular target: T1, human TRPM8 receptor (Homo sapiens, UniProt Q7Z2W7)
T1 construct: expressed in transfected cells; host or cells: HEK293-TRPM8 (transformed HEK cells, tetracycline-inducible expression)
Test: Assay on TRPM8 activation (HEK293-TRPM8 cells, Ca2+-sensitive dye Fluo-4)
Format: cell-based
Details: before and after incubation with saliva
Method: The HABP peptide—cooling compound-hybrid molecules of example 4 (1 μM in Tris buffer pH 8) were incubated with pooled human saliva (5 donors) 1:1 or as reference 1:1 in Tris buffer pH 8; 37° C., for 2 hrs at 37° C. Samples were frozen until evaluation in a cell based assay for activation of the human TRPM8 receptor.
The agonisation or antagonisation of the receptor was quantified by means of a Ca^2+-sensitive dye (e.g. FURA, Fluo-4, etc.). […] To begin with, in a manner known per se, in cell culture flasks a fresh culture of transformed HEK cells was prepared. […] Addition of the test samples in quantities of 50 μl/well and measurement of the change in fluorescence (e.g. in the FLIPR assay device, Molecular Devices or NovoStar, BMG) at 485 nm excitation, 520 nm emission, and evaluation of the effective strength of the various substances/concentrations and determination of the EC50 values.

T1 sequence (Q7Z2W7 whole entry): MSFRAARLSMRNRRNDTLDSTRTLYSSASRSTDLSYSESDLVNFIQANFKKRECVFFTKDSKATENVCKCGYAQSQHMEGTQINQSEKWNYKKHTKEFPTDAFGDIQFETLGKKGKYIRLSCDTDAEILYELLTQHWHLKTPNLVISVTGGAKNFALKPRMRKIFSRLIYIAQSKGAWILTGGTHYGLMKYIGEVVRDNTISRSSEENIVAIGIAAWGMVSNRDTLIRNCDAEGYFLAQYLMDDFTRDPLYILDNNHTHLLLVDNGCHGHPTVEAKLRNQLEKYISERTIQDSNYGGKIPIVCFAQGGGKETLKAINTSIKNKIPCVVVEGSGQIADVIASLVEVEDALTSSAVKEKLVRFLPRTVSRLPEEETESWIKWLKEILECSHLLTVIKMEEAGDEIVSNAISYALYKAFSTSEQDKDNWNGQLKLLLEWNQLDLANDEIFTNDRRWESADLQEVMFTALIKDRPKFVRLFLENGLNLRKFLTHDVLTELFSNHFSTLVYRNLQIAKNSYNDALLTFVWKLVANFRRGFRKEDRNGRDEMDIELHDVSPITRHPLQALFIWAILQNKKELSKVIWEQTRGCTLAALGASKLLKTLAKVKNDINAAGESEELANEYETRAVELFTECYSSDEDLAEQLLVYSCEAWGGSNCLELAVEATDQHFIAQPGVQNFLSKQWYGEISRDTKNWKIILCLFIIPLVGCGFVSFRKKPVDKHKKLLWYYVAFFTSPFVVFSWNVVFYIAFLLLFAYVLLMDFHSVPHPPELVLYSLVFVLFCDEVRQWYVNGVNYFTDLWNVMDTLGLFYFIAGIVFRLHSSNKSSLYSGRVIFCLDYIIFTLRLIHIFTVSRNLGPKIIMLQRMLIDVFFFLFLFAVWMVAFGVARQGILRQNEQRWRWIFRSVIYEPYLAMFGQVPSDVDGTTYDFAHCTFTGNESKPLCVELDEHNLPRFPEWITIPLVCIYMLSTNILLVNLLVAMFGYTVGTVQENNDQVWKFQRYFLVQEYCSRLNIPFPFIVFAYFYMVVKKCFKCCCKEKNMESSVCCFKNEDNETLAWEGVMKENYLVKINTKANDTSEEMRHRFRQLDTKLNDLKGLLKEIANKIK

| Molecule | bioactivity on the human cool receptor TRPM8 |
| --- | --- |
| CC1CCC(C(C)C)C(O)C1 (centres unmarked) [menthol] | bioactive |

Test system: not given
Test: not given
Details: described by Yarbrough et al. 2010; used as negative control; cited from earlier work

| Molecule | binding to hydroxyapatite as described in literature |
| --- | --- |
| LIKHILHRL | non-binding |
